Data published in patent US9796711B2, “Substituted pyrazolo[3,4-b]pyridin-6-carboxylic acids and method of use” (AbbVie S.àr.l., priority 2015, dated 2017).

Tests used:
ΔF508-CFTR [1] = target: T1, ΔF508-CFTR (Homo sapiens, UniProt P13569, DEL508-508); assay: CFTR cell surface levels using HRP-tagged ΔF508-CFTR expressing CFBE cells, in the presence of a co-corrector; format: cell-based; conditions: HRP-tagged ΔF508-CFTR expressing CFBE cells, in the presence of 3 μM co-corrector; for EC50: read-out: EC50
T1 construct: host or cells: CFBE41o-, doxycycline-inducible
Method in brief: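 Cells were seeded with 0.5 μg/mL doxycycline and held 68 h at 37 °C. Test compounds plus 3 μM co-corrector (final 0.1% DMSO) were then added for 20 h at 33 °C. Washed cells received HRP substrate, and luminescence was normalized between DMSO and 3 μM co-corrector controls.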

ΔF508-CFTR [2] = target: T1, ΔF508-CFTR; assay: CFTR cell surface levels using HRP-tagged ΔF508-CFTR expressing CFBE cells, intrinsic corrector capacity; format: cell-based; conditions: for EC50: read-out: EC50
Method in brief: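 Here the cells express ΔF508-CFTR with horseradish peroxidase inserted in extracellular loop 4, so only rescued channel at the surface gives luminescent signal. Compounds act on their own, 20 h at the reduced temperature of 33 °C; values are percent activity relative to DMSO and a 3 μM corrector.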

[3] = HRP-tagged ΔF508-CFTR CFBE41o- cells, compounds alone (intrinsic corrector capacity), 20 hours at 33° C., positive control 3 μM corrector
[4] = HRP-tagged ΔF508-CFTR CFBE41o- cells, compounds alone (intrinsic corrector capacity), 20 hours at 33° C.
[5] = HRP-tagged ΔF508-CFTR expressing CFBE cells, intrinsic corrector capacity (no co-corrector), 33° C., 20 hours

T1 sequence (P13569 with tags, fused parts or gaps DEL508-508): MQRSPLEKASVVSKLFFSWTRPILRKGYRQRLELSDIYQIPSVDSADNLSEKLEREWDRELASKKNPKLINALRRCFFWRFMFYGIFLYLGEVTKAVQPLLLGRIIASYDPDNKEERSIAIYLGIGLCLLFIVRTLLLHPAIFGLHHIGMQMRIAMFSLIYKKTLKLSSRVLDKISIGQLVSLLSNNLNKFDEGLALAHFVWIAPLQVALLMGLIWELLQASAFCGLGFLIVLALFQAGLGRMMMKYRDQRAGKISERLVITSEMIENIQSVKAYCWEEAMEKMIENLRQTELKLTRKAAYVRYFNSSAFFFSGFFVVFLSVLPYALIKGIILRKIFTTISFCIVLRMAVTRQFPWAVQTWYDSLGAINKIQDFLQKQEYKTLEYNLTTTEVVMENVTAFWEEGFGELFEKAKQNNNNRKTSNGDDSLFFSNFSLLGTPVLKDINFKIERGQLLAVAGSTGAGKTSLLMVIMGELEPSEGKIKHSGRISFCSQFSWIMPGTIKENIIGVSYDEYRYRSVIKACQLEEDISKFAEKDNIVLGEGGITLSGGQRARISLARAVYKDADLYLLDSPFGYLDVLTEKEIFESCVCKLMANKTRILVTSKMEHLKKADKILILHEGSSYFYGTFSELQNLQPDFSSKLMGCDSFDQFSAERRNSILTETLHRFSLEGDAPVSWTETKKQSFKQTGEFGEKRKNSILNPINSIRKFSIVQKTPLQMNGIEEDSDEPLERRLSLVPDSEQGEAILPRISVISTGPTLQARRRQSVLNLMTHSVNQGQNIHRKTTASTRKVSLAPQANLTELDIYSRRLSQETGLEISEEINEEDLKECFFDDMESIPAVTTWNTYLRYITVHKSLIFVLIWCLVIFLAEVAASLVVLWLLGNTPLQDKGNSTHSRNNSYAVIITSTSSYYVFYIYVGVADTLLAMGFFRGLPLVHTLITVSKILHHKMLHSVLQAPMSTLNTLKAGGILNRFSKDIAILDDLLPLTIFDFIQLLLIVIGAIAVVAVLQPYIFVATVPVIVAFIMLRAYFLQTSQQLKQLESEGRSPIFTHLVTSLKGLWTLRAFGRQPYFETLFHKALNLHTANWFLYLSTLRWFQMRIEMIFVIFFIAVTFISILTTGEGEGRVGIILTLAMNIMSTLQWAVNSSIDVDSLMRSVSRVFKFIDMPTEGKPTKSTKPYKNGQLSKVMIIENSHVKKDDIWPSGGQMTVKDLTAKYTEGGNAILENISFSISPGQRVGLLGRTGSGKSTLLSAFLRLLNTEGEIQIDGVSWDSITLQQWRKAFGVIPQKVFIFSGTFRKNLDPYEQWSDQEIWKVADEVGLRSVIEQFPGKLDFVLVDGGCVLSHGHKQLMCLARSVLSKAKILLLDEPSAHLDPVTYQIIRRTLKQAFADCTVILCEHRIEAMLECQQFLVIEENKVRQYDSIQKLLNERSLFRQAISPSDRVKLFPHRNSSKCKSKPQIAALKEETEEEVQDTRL

Compound | % Activation (ΔF508-CFTR [1]) [%] | EC50 (ΔF508-CFTR [1]) [nM] | % Activation (ΔF508-CFTR [2]; [3]) [%] | EC50 (ΔF508-CFTR [2]; [4]) [nM] | % Activation (ΔF508-CFTR [2]; [5]) [%] | EC50 (ΔF508-CFTR [2]; [5]) [nM]
O=C(O)c1cc(N2CCC(OCC(=O)N3CCCC3)CC2)c2c(C3CCC3)nn(-c3ccccc3)c2n1 [compound 367, 3-cyclobutyl-4-{4-[2-oxo-2-(pyrrolidin-1-yl)ethoxy]piperidin-1-yl}-1-phenyl-1H-pyrazolo[3,4-b]pyridine-6-carboxylic acid] | 406.35 | 669 | 239.55 | 1010 | – | –
Cc1cccc(-n2nc(C(C)C)c3c(N4CCCCC4)cc(C(=O)O)nc32)c1 [compound 162, 1-(3-methylphenyl)-4-(piperidin-1-yl)-3-(propan-2-yl)-1H-pyrazolo[3,4-b]pyridine-6-carboxylic acid] | 399.73 | 808 | 147.97 | 992 | – | –
CC(=O)N1CCC(F)(COc2cc(C(=O)O)nc3c2c(C2CCC2)nn3-c2ccccc2)CC1 [compound 479, 4-[(1-acetyl-4-fluoropiperidin-4-yl)methoxy]-3-cyclobutyl-1-phenyl-1H-pyrazolo[3,4-b]pyridine-6-carboxylic acid] | 317.77 | 1850 | – | – | 114.41 | 1850
CC(=O)N1CCC(n2nc(C(C)C)c3c(-c4ccc(N5CCOCC5)cc4)cc(C(=O)O)nc32)CC1 [compound 71, 1-(1-acetylpiperidin-4-yl)-4-[4-(morpholin-4-yl)phenyl]-3-(propan-2-yl)-1H-pyrazolo[3,4-b]pyridine-6-carboxylic acid] | 126.8 | > 10000 | 17.23 | > 10000 | – | –
CC(C)c1nn(-c2ccc(F)cc2)c2nc(C(=O)O)cc(N3CCN(C(C)(C)C)CC3)c12 [compound 788, 4-(4-tert-butylpiperazin-1-yl)-1-(4-fluorophenyl)-3-(propan-2-yl)-1H-pyrazolo[3,4-b]pyridine-6-carboxylic acid] | 329.4 | 1670 | – | – | 115.7 | 1670
CCOCC1(F)CCN(c2cc(C(=O)O)nc3c2c(C2CCC2)nn3-c2ccccc2)CC1 [compound 461, 3-cyclobutyl-4-[4-(ethoxymethyl)-4-fluoropiperidin-1-yl]-1-phenyl-1H-pyrazolo[3,4-b]pyridine-6-carboxylic acid] | 328.05 | 343 | – | – | 158.55 | 818
Cc1nn(-c2ccccc2)c2nc(C(=O)O)cc(-c3ccc(N4CCOC(CO)C4)cc3)c12 (stereo not shown) [compound 133, 4-{4-[2-(hydroxymethyl)morpholin-4-yl]phenyl}-3-methyl-1-phenyl-1H-pyrazolo[3,4-b]pyridine-6-carboxylic acid] | 280.3 | 3340 | 74.96 | 3340 | – | –
COCCN(C)c1cccc(-n2nc(C(C)C)c3c(-c4ccc(N5CCOCC5)cc4)cc(C(=O)O)nc32)c1 [compound 172, 1-{3-[(2-methoxyethyl)(methyl)amino]phenyl}-4[4-(morpholin-4-yl)phenyl]-3-(propan-2-yl)-1H-pyrazolo[3,4-b]pyridine-6-carboxylic acid] | 513.1 | 480 | 339.33 | 615 | – | –
O=C(O)c1cc(N2CCC(CN3CC[C@H](F)C3)CC2)c2c(C3CCC3)nn(-c3ccccc3)c2n1 [compound 833, 3-cyclobutyl-4-(4-{[(3S)-3-fluoropyrrolidin-1-yl]methyl}piperidin-1-yl)-1-phenyl-1H-pyrazolo[3,4-b]pyridine-6-carboxylic acid] | 443.15 | 142 | – | – | 231.9 | 187
Cc1nn(-c2ccccc2)c2nc(C(=O)O)cc(N3CC4(CCCCO4)C3)c12 [compound 312, 3-methyl-4-(5-oxa-2-azaspiro[3.5]nonan-2-yl)-1-phenyl-1H-pyrazolo[3,4-b]pyridine-6-carboxylic acid] | 185 | 2320 | 61.325 | 2510 | – | –
